molecular target: Endothelial lipase (EL) (Homo sapiens (Human), UniProt Q9Y5X9); experiment: Endothelial lipase (EL) enzymatic assay with fluorescent substrate A10070 in DMPG vesicles; format: biochemical
Procedure, shortened: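 Compounds were preincubated with enzyme for 30 min at 37° C before FRET-substrate vesicles (A10070 in DMPG, 0.11 mole fraction) were added. Reaction rates were obtained from the 300–900 sec slope of fluorescence at 490/530 nm.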

Sequence of Endothelial lipase (EL) (Q9Y5X9 21-500): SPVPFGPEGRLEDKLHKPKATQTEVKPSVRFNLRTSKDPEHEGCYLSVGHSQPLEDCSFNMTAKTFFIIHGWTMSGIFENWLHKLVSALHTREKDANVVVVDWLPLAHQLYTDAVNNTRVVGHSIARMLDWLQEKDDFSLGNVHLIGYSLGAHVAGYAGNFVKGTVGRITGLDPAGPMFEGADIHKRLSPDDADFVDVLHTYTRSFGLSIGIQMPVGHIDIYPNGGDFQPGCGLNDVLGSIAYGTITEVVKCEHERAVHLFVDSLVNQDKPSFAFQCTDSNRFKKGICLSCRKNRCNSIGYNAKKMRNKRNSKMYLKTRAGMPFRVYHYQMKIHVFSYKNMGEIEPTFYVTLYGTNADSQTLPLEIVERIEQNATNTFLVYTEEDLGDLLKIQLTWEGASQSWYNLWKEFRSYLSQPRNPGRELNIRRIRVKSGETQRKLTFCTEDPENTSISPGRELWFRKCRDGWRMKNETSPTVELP

IC50	SMILES
19 nM	COC(=O)N(C)c1cccc(-c2ccc3nc(C(C(=O)NCC(=O)NC4CC4)S(C)(=O)=O)sc3c2)c1 (centres unmarked) [Example 544, methyl N-{3-[2-({[(cyclopropyl-carbamoyl)methyl]carbamoyl} (methanesulfonyl)methyl)-1,3-benzothiazol-6-yl]phenyl}-N-methylcarbamate]
4 nM	COCCNC(=O)CNC(=O)C(c1nc2ccc(-c3ccc(C(=O)NCCOC)cc3)cc2s1)S(=O)(=O)c1ccc(F)cc1 (centres unmarked) [Example 462, 4-{2-[(4-fluorobenzene-sulfonyl)({[(2-methoxyethyl)carbamoyl]methyl}carbamoyl)methyl]-1,3-benzothiazol-6-yl}-N-(2-methoxyethyl) benzamide]
20 nM	COCCS(=O)(=O)C(C(=O)NCC(=O)NC1CC1)c1nc2ccc(-c3ccc(C(=O)N4C[C@@H](C)O[C@@H](C)C4)cc3)cc2s1 (stereo partly drawn) [Example 569, N-[(cyclopropyl-carbamoyl)methyl]-2-(6-{4-[(2R,6S)-2,6-dimethyl-morpholine-4-carbonyl]phenyl}-1,3-benzothiazol-2-yl)-2-(2-methoxyethane-sulfonyl)acetamide]
9 nM	COCCS(=O)(=O)C(C(=O)NCC(=O)NC1CC1)c1nc2ccc(-c3ccc4c(c3)CNC4=O)cc2s1 (centres unmarked) [Example 340, N-[(cyclopropyl-carbamoyl)methyl]-2-(2-methoxyethane-sulfonyl)-2-[6-(1-oxo-2,3-dihydro-1H-isoindol-5-yl)-1,3-benzothiazol-2-yl]acetamide]
188 nM	COCCS(=O)(=O)C(C(=O)NCC(=O)NC1CC1)c1nc2ccc(-c3cccc(Cl)n3)cc2s1 (centres unmarked) [Example 312, 2-[6-(6-chloropyridin-2-yl)-1,3-benzothiazol-2-yl]-N-[(cyclopropyl-carbamoyl)methyl]-2-(2-methoxyethane-sulfonyl)acetamide]
23 nM	CC(C)n1cc(-c2cc3sc(C(C(=O)NCC(=O)NC4CC4)S(C)(=O)=O)nc3cc2F)ccc1=O (centres unmarked) [Example 195, N-[(cyclopropyl-carbamoyl)methyl]-2-{5-fluoro-6-[6-oxo-1-(propan-2-yl)-1,6-dihydropyridin-3-yl]-1,3-benzothiazol-2-yl}-2-methanesulfonyl-acetamide]
97 nM	COCCS(=O)(=O)C(C(=O)NCC(=O)NC1CC1)c1nc2cc(Cl)c(-c3cncnc3)cc2s1 (centres unmarked) [Example 112, 2-[5-chloro-6-(pyrimidin-5-yl)-1,3-benzothiazol-2-yl]-N-[(cyclopropyl-carbamoyl)methyl]-2-(2-methoxyethane-sulfonyl)acetamide]
1 nM	CCCS(=O)(=O)C(C(=O)NCC(=O)NC1CC1)c1nc2cc(F)c(-c3ccc(NC(=O)OCc4ccccc4)cc3)cc2s1 (centres unmarked) [Example 52, benzyl N-{4-[2-({[(cyclopropyl-carbamoyl)methyl]carbamoyl} (propane-1-sulfonyl)methyl)-5-fluoro-1,3-benzothiazol-6-yl]phenyl} carbamate]
67 nM	O=C1Cc2ccc(-c3ccc4nc(C(C(=O)NCC(=O)NC5CC5)S(=O)(=O)c5ccc(F)cc5)sc4c3)cc2N1 (centres unmarked) [Example 453, N-[(cyclopropyl-carbamoyl)methyl]-2-(4-fluorobenzene-sulfonyl)-2-[6-(2-oxo-2,3-dihydro-1H-indol-6-yl)-1,3-benzothiazol-2-yl]acetamide]
33 nM	Cc1cccc(S(=O)(=O)C(C(=O)NCC(=O)NC2CC2)c2nc3cc(-c4ccc(F)nc4)ccc3s2)c1 (centres unmarked) [Example 438, N-[(cyclopropyl-carbamoyl)methyl]-2-[5-(6-fluoropyridin-3-yl)-1,3-benzothiazol-2-yl]-2-(3-methylbenzene-sulfonyl)acetamide]
4 nM	Cc1cc2nc(C(C(=O)NCC(=O)NC3CC3)S(=O)(=O)C(C)C)sc2cc1-c1ccc(-c2ccccn2)cc1 (centres unmarked) [Example 261, N-[(cyclopropyl-carbamoyl)methyl]-2-{5-methyl-6-[4-(pyridin-2-yl)phenyl]-1,3-benzothiazol-2-yl}-2-(propane-2-sulfonyl) acetamide]
12 nM	COCCS(=O)(=O)C(C(=O)NCC(=O)NC1CC1)c1nc2cc(F)c(-c3cccc(N(C)C(=O)OC)c3)cc2s1 (centres unmarked) [Example 548, methyl N-{3-[2-({[(cyclopropyl-carbamoyl)methyl]carbamoyl}(2-methoxyethane-sulfonyl)methyl)-5-fluoro-1,3-benzothiazol-6-yl]phenyl}-N-methylcarbamate]
6 nM	COCCS(=O)(=O)C(C(=O)NCC(=O)NC1CC1)c1nc2cc(F)c(-c3ccc(-c4nn[nH]n4)cc3)cc2s1 (centres unmarked) [Example 146, N-[(cyclopropyl-carbamoyl)methyl]-2-{5-fluoro-6-[4-(2H-1,2,3,4-tetrazol-5-yl)phenyl]-1,3-benzothiazol-2-yl}-2-(2-methoxyethane-sulfonyl)acetamide]
1 nM	N#Cc1cccc(COC(=O)Nc2ccc(-c3cc4sc(C(C(=O)NCC(=O)NC5CC5)S(=O)(=O)CCC(F)(F)F)nc4cc3F)cc2)c1 (centres unmarked) [Example 522, (3-cyanophenyl) methyl N-{4-[2-({[(cyclopropyl-carbamoyl)methyl]carbamoyl}(3,3,3-trifluoropropane-sulfonyl)methyl)-5-fluoro-1,3-benzothiazol-6-yl]phenyl} carbamate]
39 nM	O=C(CNC(=O)C(c1nc2ccc(-c3ccc4c(c3)C(=O)NC4)cc2s1)S(=O)(=O)c1ccc(F)cc1)NC1CC1 (centres unmarked) [Example 451, N-[(cyclopropyl-carbamoyl)methyl]-2-(4-fluorobenzene-sulfonyl)-2-[6-(3-oxo-2,3-dihydro-1H-isoindol-5-yl)-1,3-benzothiazol-2-yl}acetamide]
6 nM	COCCS(=O)(=O)C(C(=O)NCC(=O)NC1CC1)c1nc2cc(F)c(-c3ccc(N(C)C(=O)OC)cc3)cc2s1 (centres unmarked) [Example 32, methyl N-{4-[2-({[(cyclopropyl-carbamoyl)methyl]carbamoyl}(2-methoxyethane-sulfonyl)methyl)-5-fluoro-1,3-benzothiazol-6-yl]phenyl}-N-methylcarbamate]
16 nM	Cn1cnc2ccc(-c3cc4sc(C(C(=O)NCC(=O)NC5CC5)S(C)(=O)=O)nc4cc3F)cc21 (centres unmarked) [Example 369, N-[(cyclopropyl-carbamoyl)methyl]-2-[5-fluoro-6-(1-methyl-1H-1,3-benzodiazol-6-yl)-1,3-benzothiazol-2-yl]-2-methanesulfonyl-acetamide]
14 nM	O=C(CNC(=O)C(c1nc2ccc(-c3ccc(F)nc3)cc2s1)S(=O)(=O)c1ccccc1)NC1CC1 (centres unmarked) [Example 434, 2-(benzenesulfonyl)-N-[(cyclopropyl-carbamoyl)methyl]-2-[6-(6-fluoropyridin-3-yl)-1,3-benzothiazol-2-yl] acetamide]
299 nM	O=C(CNC(=O)C(c1nc2ccc(-c3ccc(F)nc3)cc2s1)S(=O)(=O)N1CCOCC1)NC1CC1 (centres unmarked) [Example 483, N-[(cyclopropyl-carbamoyl)methyl]-2-[6-(6-fluoropyridin-3-yl)-1,3-benzothiazol-2-yl]-2-(morpholine-4-sulfonyl)acetamide]
9 nM	COCCNC(=O)c1cccc(-c2ccc3sc(C(C(=O)NCC(=O)NC4CC4)S(=O)(=O)CCOC)nc3c2)c1 (centres unmarked) [Example 400, 3-[2-({[(cyclopropyl-carbamoyl)methyl]carbamoyl}(2-methoxyethane-sulfonyl)methyl)-1,3-benzothiazol-5-yl]-N-(2-methoxyethyl) benzamide]

From patent publication US10173991B2, “Sulfone amide linked benzothiazole inhibitors of endothelial lipase” (BRISTOL-MYERS SQUIBB COMPANY, priority 2014, dated 2019)
